In the oligonucleotide strings, read from the 5' end, every base follows the letter of its sugar. An asterisk marks phosphorothioate; unmarked linkages are phosphodiester. Other units and linkages are bracketed, terminal groups are in braces. A string of capitals states the bases alone. e = 2'-O-(2-methoxyethyl) (MOE); [5mC] = 5-methylcytosine; d = 2'-deoxy (DNA)
Tested on: human apolipoprotein B mRNA
Test: Inhibition of human apolipoprotein B mRNA levels in HepG2 cells, quantitative real-time PCR
Assay type: cell-based
Conditions: for % INHIB (inhibition of human apolipoprotein B mRNA levels): HepG2 cells treated with 150 nM of compound, quantitative real-time PCR; for % Change in apolipoprotein B mRNA expression: 24 hour (Table 40)
In short: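 Apolipoprotein B transcript was quantified by one-step TaqMan RT-PCR, normalized to GAPDH or RiboGreen RNA, and expressed as percent inhibition against an untreated-sample standard curve. HepG2 cells were harvested 16-24 h after oligonucleotide exposure, which was delivered with 3.75 μg/mL Lipofectin over 4-7 h at 80% confluency.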

[1] = Table 11 gene walk, HepG2 cells, 50 nM, averages from two experiments
[2] = Table 11 gene walk, HepG2 cells, 150 nM, averages from two experiments
[3] = HepG2 cells, human apolipoprotein B mRNA, oligonucleotides targeting genomic sequence SEQ ID NO 334, averages from two experiments
[4] = HepG2 cells, 50 nm oligonucleotide, variable deoxy gap position
[5] = HepG2 cells, 150 nm oligonucleotide, variable deoxy gap position

Substance: 301034 (eT*eG*e[5mC]*eT*eT*dA*dT*dA*dG*dT*d[5mC]*dT*dA*d[5mC]*dT*eG*e[5mC]*e[5mC]*eT*eA; antisense) [compound 301034]
- % INHIB (inhibition of human apolipoprotein B mRNA levels) (averages from two experiments): 88%
- % inhibition 37 nM (Table 19 dose response, HepG2 cells, 37 nM, normalized to untreated control): 73%
- % inhibition 75 nM (Table 19 dose response, HepG2 cells, 75 nM, normalized to untreated control): 87%
- % inhibition 150 nM (Table 19 dose response, HepG2 cells, 150 nM, normalized to untreated control): 93%
- % inhibition 300 nM (Table 19 dose response, HepG2 cells, 300 nM, normalized to untreated control): 97%

Substance: 308623 (eG*e[5mC]*eG*e[5mC]*e[5mC]*dT*dT*d[5mC]*dT*dG*d[5mC]*dT*dT*dG*dA*eG*eT*eT*eA*e[5mC]; antisense) [compound 308623]
- % INHIB 50 nm (Table 13 gene walk, HepG2 cells, 50 nM, averages from two experiments): 62%
- % INHIB 150 nm (Table 13 gene walk, HepG2 cells, 150 nM, averages from two experiments): 71%

Substance: 271000 (antisense eG*e[5mC]*eA*eG*e[5mC]*dT*d[5mC]*d[5mC]*dT*dG*dG*dG*dT*d[5mC]*d[5mC]*e[5mC]*eT*eG*eT*eA) [compound 271000]
- % INHIB (inhibition of human apolipoprotein B mRNA levels) (averages from two experiments): 22%

Substance: 308596 (antisense eA*eG*eT*e[5mC]*eT*dG*d[5mC]*dT*dT*d[5mC]*dG*d[5mC]*dA*d[5mC]*d[5mC]*eT*eT*e[5mC]*eT*eG) [compound 308596]
- % INHIB 50 nm [1]: 81%
- % INHIB 150 nm [2]: 94%

Substance: 271050 (e[5mC]*e[5mC]*eT*eG*eG*dA*dG*d[5mC]*dA*dA*dG*d[5mC]*dT*dT*d[5mC]*eA*eT*eG*eT*eA; antisense) [compound 271050]
- % INHIB (inhibition of human apolipoprotein B mRNA levels) (averages from two experiments): 42%

Substance: 270991 (antisense eG*eA*eG*e[5mC]*eA*dG*dT*dT*dT*d[5mC]*d[5mC]*dA*dT*dA*d[5mC]*eA*e[5mC]*eG*eG*eT) [compound 270991]
- % INHIB (inhibition of human apolipoprotein B mRNA levels) (averages from two experiments): 21%

Substance: 301047 (eT*e[5mC]*e[5mC]*e[5mC]*e[5mC]*d[5mC]*dA*dA*dG*dT*dT*dT*dA*dG*d[5mC]*eA*eA*eA*eA*eT; antisense) [compound 301047]
- % INHIB (inhibition of human apolipoprotein B mRNA levels) (averages from two experiments): 56%

Substance: 301061 (e[5mC]*eA*eT*eG*eA*d[5mC]*dT*dT*dA*d[5mC]*d[5mC]*dT*dG*dG*dA*e[5mC]*eA*eT*eG*eG; antisense) [compound 301061]
- % INHIB [3]: 52%

Substance: 332774 (antisense GCCTCATTATTATTAGCACC; sugars from the 5' end e5 d10 e5, all phosphorothioate, methylation of C not given here) [compound 332774]
- % Change in apolipoprotein B mRNA expression (HepG2 cells, 50 nM): +62%
- % Change in apolipoprotein B mRNA expression (HepG2 cells, 150 nM): +66%

Substance: 308656 (antisense GCCTCAGTCTGCTTCGCACC; 8-10-2 2'-MOE gapmer, phosphorothioate, chemistry not fully specified) [compound 308656]
- % INHIB 50 nm [4]: 37%
- % INHIB 150 nm [5]: 97%

Substance: 270985 (antisense eT*eT*e[5mC]*e[5mC]*eT*d[5mC]*dT*dT*d[5mC]*dG*dG*d[5mC]*d[5mC]*d[5mC]*dT*eG*eG*e[5mC]*eG*e[5mC]) [compound 270985]
- % INHIB (inhibition of human apolipoprotein B mRNA levels) (averages from two experiments): 75%

Substance: 301146 (e[5mC]*eA*eT*eA*eG*dG*dA*dG*dT*dA*d[5mC]*dA*dT*dT*dT*eA*eT*eA*eT*eA; antisense) [compound 301146]
- % INHIB [3]: 23%

Substance: 308654 (antisense GCCTCAGTCTGCTTCGCGCC; 8-10-2 2'-MOE gapmer, phosphorothioate, chemistry not fully specified) [compound 308654]
- % INHIB 50 nm (Table 17 variable gap, HepG2 cells, 50 nM, averages from three experiments): 81%
- % INHIB 150 nm (Table 17 variable gap, HepG2 cells, 150 nM, averages from three experiments): 90%

Substance: 332773 (antisense GCCTCATTATTATTCGCACC; sugars from the 5' end e5 d10 e5, all phosphorothioate, methylation of C not given here) [compound 332773]
- % Change in apolipoprotein B mRNA expression (HepG2 cells, 50 nM): +75%
- % Change in apolipoprotein B mRNA expression (HepG2 cells, 150 nM): +80%

Substance: 281595 (eG*eA*eT*eG*eT*dG*dG*dA*dT*dT*dT*dG*dG*dT*dG*e[5mC]*eT*e[5mC]*eT*e[5mC]; antisense) [compound 281595]
- % INHIB (inhibition of human apolipoprotein B mRNA levels) (averages from two experiments): 76%

Substance: 308631 (AGGTTACCAGCCACATGCAG; 0-10-10 MOE gapmer, phosphorothioate, chemistry not fully specified) [compound 308631]
- % INHIB 50 nm [4]: 74%
- % INHIB 150 nm [5]: 94%

Substance: 281638 (antisense eT*e[5mC]*e[5mC]*e[5mC]*eT*d[5mC]*dA*dT*d[5mC]*dT*dG*dA*dG*dA*dA*eT*e[5mC]*eT*eG*eG) [compound 281638]
- % INHIB (inhibition of human apolipoprotein B mRNA levels) (averages from two experiments): 66%

Substance: 281589 (eT*e[5mC]*eA*eG*e[5mC]*dA*dA*dG*dG*d[5mC]*dT*dT*dT*dG*d[5mC]*e[5mC]*e[5mC]*eT*e[5mC]*eA; antisense) [compound 281589]
- % INHIB (inhibition of human apolipoprotein B mRNA levels) (averages from two experiments): 90%

Substance: 301052 (eA*eG*eA*eA*eA*dT*dA*dG*d[5mC]*dT*d[5mC]*dT*d[5mC]*d[5mC]*d[5mC]*eA*eA*eG*eG*eA; antisense) [compound 301052]
- % INHIB [3]: 13%

Substance: 281616 (antisense eG*eT*e[5mC]*eT*eA*dG*dA*dA*d[5mC]*dA*d[5mC]*d[5mC]*d[5mC]*dA*dG*eG*eA*eG*eA*eG) [compound 281616]
- % INHIB (inhibition of human apolipoprotein B mRNA levels) (averages from two experiments): 66%

Substance: 301136 (e[5mC]*eT*eT*e[5mC]*eA*d[5mC]*dA*dA*dA*dT*dA*d[5mC]*dA*d[5mC]*dA*e[5mC]*e[5mC]*eT*eG*e[5mC]; antisense) [compound 301136]
- % INHIB [3]: 20%

Substance: 301167 (antisense e[5mC]*e[5mC]*eA*eA*eG*d[5mC]*d[5mC]*dT*d[5mC]*dT*dT*dT*dA*d[5mC]*dT*eG*eG*eG*e[5mC]*eT) [compound 301167]
- % INHIB [3]: 29%

Substance: 271035 (eT*e[5mC]*eG*eT*eA*d[5mC]*dT*dG*dT*dG*d[5mC]*dT*d[5mC]*d[5mC]*d[5mC]*eA*eG*eA*eG*eG; antisense) [compound 271035]
- % INHIB (inhibition of human apolipoprotein B mRNA levels) (averages from two experiments): 23%

Substance: 308589 (antisense e[5mC]*eT*eT*e[5mC]*eT*dG*d[5mC]*dT*dT*dG*dA*dG*dT*dT*dA*e[5mC]*eA*eA*eA*e[5mC]) [compound 308589]
- % INHIB 50 nm [1]: 20%
- % INHIB 150 nm [2]: 94%

Substance: 308650 (antisense GCCTCAGTCTGCTTCGCACC; 6-10-4 2'-MOE gapmer, phosphorothioate, chemistry not fully specified) [compound 308650]
- % INHIB 50 nm [4]: 74%
- % INHIB 150 nm [5]: 94%

Substance: 301120 (antisense eT*eA*eG*eG*e[5mC]*dA*dA*dA*dG*dG*dA*d[5mC]*dA*dT*dG*eA*eA*eT*eA*eG) [compound 301120]
- % INHIB [3]: 30%

Substance: 281594 (eG*eA*eT*eG*eG*d[5mC]*dT*dT*d[5mC]*dT*dG*d[5mC]*d[5mC]*dA*d[5mC]*eA*eT*eG*e[5mC]*eT; antisense) [compound 281594]
- % INHIB (inhibition of human apolipoprotein B mRNA levels) (averages from two experiments): 74%

Substance: 281628 (antisense e[5mC]*eT*eA*eG*eA*d[5mC]*dA*d[5mC]*dG*dA*dG*dA*dT*dG*dA*eT*eG*eA*e[5mC]*eT) [compound 281628]
- % INHIB (inhibition of human apolipoprotein B mRNA levels) (averages from two experiments): 81%

Substance: 281635 (antisense eA*eT*eA*e[5mC]*eA*d[5mC]*dT*dG*d[5mC]*dA*dA*d[5mC]*dT*dG*dT*eG*eG*e[5mC]*e[5mC]*eT) [compound 281635]
- % INHIB (inhibition of human apolipoprotein B mRNA levels) (averages from two experiments): 89%

Substance: 271007 (antisense e[5mC]*eT*eG*eA*eG*d[5mC]*dA*dG*d[5mC]*dT*dT*dG*dA*d[5mC]*dT*eG*eG*eT*e[5mC]*eT) [compound 271007]
- % INHIB (inhibition of human apolipoprotein B mRNA levels) (averages from two experiments): 26%

Substance: 147823 (antisense eT*eG*e[5mC]*e[5mC]*e[5mC]*dT*dG*d[5mC]*dA*dG*d[5mC]*dT*dT*d[5mC]*dA*e[5mC]*eT*eG*eA*eA) [compound 147823]
- % INHIB (Table 1, HepG2 cells, 150 nM, averages from two experiments): 19%

Substance: 301023 (eT*eA*eG*eA*eG*dG*dA*dT*dG*dA*dT*dA*dG*dT*dA*eA*eG*eT*eT*e[5mC]; antisense) [compound 301023]
- % INHIB (inhibition of human apolipoprotein B mRNA levels) (averages from two experiments): 69%

Substance: 332770 (antisense GCCTCAGTCTTCTTCGCACC; sugars from the 5' end e5 d10 e5, all phosphorothioate, methylation of C not given here) [compound 332770]
- % Change in apolipoprotein B mRNA expression (HepG2 cells, 50 nM): +7%
- % Change in apolipoprotein B mRNA expression (HepG2 cells, 150 nM): −22%

Substance: 271002 (antisense eA*eA*eT*e[5mC]*eT*d[5mC]*dG*dA*dT*dG*dA*dG*dG*dT*d[5mC]*eA*eG*e[5mC]*eT*eG) [compound 271002]
- % INHIB (inhibition of human apolipoprotein B mRNA levels) (averages from two experiments): 48%

Substance: 301068 (eA*eT*eT*eT*e[5mC]*d[5mC]*d[5mC]*dA*d[5mC]*dT*dG*dG*dG*dT*dA*e[5mC]*eT*e[5mC]*eT*e[5mC]; antisense) [compound 301068]
- % INHIB [3]: 44%

Substance: 281618 (antisense eA*eA*eG*e[5mC]*eA*dG*dA*d[5mC]*dA*dT*d[5mC]*dT*dG*dT*dG*eG*eT*e[5mC]*e[5mC]*e[5mC]) [compound 281618]
- % INHIB (inhibition of human apolipoprotein B mRNA levels) (averages from two experiments): 90%
